Test: Ionizable cationic lipid library screen, in vitro delivery of luciferase mRNA (mLuc)
Assay type: cell-based
Settings: 18*8 library, LNPs with DOPE, cholesterol, DMG-PEG
Source text: In some embodiments, an ionizable cationic lipid is generally composed of three parts: (1) one or more hydrophilic headgroups containing one or multiple ionizable amines for condensing negatively charged mRNA; (2) one or more hydrophobic hydrocarbon chains capable of promoting self-assembly and phospholipid membrane fusion; and (3) one or more degradable ester linkers connecting the headgroups with the hydrocarbon chains to potentially lower systemic cytotoxicity, as shown in FIG. 9B. In some embodiments, a new library of ionizable cationic lipids is provided, with ionizable amine headgroups derived from different amino alcohols and hydrocarbon lipid chains derived from commercially available lipid acids. In some embodiments, using CALB enzyme-assisted reaction, the hydroxyl groups were reacted with carboxylic acids via one-step high-efficiency esterification, as shown in FIG. 9A. An 18*8 library of lipid-like materials was synthesized by varying amino alcohols and lipid acids. These lipid-like materials with DOPE, cholesterol, and DMG-PEG were fabricated at a molar ratio of 50:10:38.5:1.5, which was a widely used formulation to form LNPs and delivered luciferase encoded mRNA (mLuc) in vitro to generate a luciferase expression heat map of lipid-like materials. […]

Compound: CCCCC/C=C\C/C=C\CCCCCCCC(=O)OCCN1CCN(CCOC(=O)CCCCCCC/C=C\C/C=C\CCCCC)CC1 [AA3-DLin]
- rank in luciferase expression screen of lipid-like materials: top-performing
